Square brackets hold non-standard residues; d marks the D form. Peptide text beside a SMILES is read from it. * marks the point of attachment. pY = N[C@@H](Cc1ccc(OP(=O)(O)O)cc1)C(=O)O; Hydrocinnamoyl = O=C(CCc1ccccc1)*; Ac6c = NC1(C(=O)O)CCCCC1; Cbz = O=C(OCc1ccccc1)*
These compounds were tested against T1, Growth factor receptor-bound protein 2 (Homo sapiens, UniProt P62993) (assay: Binding affinity to Grb2 SH2 domain (unknown origin) by isothermal titration calorimetry).
Target sequence in this assay (P62993 whole entry, looked up, the tested form may be a part): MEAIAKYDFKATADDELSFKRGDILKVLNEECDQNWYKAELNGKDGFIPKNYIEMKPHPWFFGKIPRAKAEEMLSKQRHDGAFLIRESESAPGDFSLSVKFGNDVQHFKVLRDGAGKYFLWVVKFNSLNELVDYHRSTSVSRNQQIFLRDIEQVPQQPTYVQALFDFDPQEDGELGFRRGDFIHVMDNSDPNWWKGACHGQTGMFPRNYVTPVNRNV

Q: For `Cn1cc(CCC(=O)N[C@@H](Cc2ccc(OP(=O)(O)O)cc2)C(=O)NC2(C(=O)N[C@@H](CC(N)=O)C(N)=O)CCCCC2)c2ccccc21`, which Ka is on record?
A: The Ka was 11.4 ×10⁶ /M.

Q: With `NC(=O)C[C@H](NC(=O)C1(NC(=O)[C@H](Cc2ccc(OP(=O)(O)O)cc2)NC(=O)CCC2CCCCC2)CCCCC1)C(N)=O` as the compound, how does the Ka read?
A: Its Ka is 28.8 ×10⁶ /M.

Q: How did the Ka turn out when `NC(=O)C[C@H](NC(=O)C1(NC(=O)[C@H](Cc2ccc(OP(=O)(O)O)cc2)NC(=O)OCc2cccc(N)c2)CCCCC1)C(N)=O` was run?
A: The Ka was 8.8 ×10⁶ /M.

Q: With `NC(=O)C[C@H](NC(=O)C1(NC(=O)[C@H](Cc2ccc(OP(=O)(O)O)cc2)NC(=O)OCc2ccccc2)CCCCC1)C(N)=O` (Cbz-[pY]-[Ac6c]-Asn-NH2) as the compound, how does the Ka read?
A: Its Ka is 6.5 ×10⁶ /M.

Q: How did the Ka turn out when `NC(=O)C[C@H](NC(=O)C1(NC(=O)[C@H](Cc2ccc(OP(=O)(O)O)cc2)NC(=O)CCc2ccccc2)CCCCC1)C(N)=O` (Hydrocinnamoyl-[pY]-[Ac6c]-Asn-NH2) was run?
A: The Ka was 23.4 ×10⁶ /M.

Q: With `CC(=O)N[C@@H](Cc1ccc(OP(=O)(O)O)cc1)C(=O)NC1(C(=O)N[C@@H](CC(N)=O)C(N)=O)CCCCC1` (HELM PEPTIDE1{[ac].[O=C([C@H](Cc1ccc(OP(=O)(O)O)cc1)N[*:1])[*:2]].[O=C(C1(N[*:1])CCCCC1)[*:2]].N.[am]}$$$$V2.0) as the compound, how does the Ka read?
A: The Ka was 7 ×10⁶ /M.

Each compound was assayed against T1, Growth factor receptor-bound protein 2 (assay: Binding affinity to Grb2 SH2 domain (60 to 151) (unknown origin) expressed in Escherichia coli BL21(DE3) after overnight incubation by ELISA).
Target sequence in this assay (P62993 whole entry, the tested form may be a part): as the sequence (P62993 whole entry, looked up, the tested form may be a part) above

Q: How did the IC50 turn out when `C[C@](NC(=O)[C@H](Cc1ccc(OP(=O)(O)O)cc1)NC(=O)OCc1cccc(N)c1)(C(=O)N[C@@H](CC(N)=O)C(N)=O)c1ccc(OP(=O)(O)O)cc1` was run?
A: The IC50 was 13 nM.
